According to patent US20170105960A1, “Prodrugs of Succinic Acid for Increasing ATP Production” (NEUROVIVE PHARMACEUTICAL AB, priority 2014, published 2017):
Entries after “also recorded” stand apart in the source; their conditions may differ.

Assays:
intact cells [1] = test: Assays exemplified for enhancement of mitochondrial energy producing function (not specified which); assay type: cell-based, human
Description: An increase in respiration rate in the described protocol is tightly coupled to ATP synthesis by oxidative phosphorylation unless cells are uncoupled (i.e. proton leak without production of ATP). Uncoupling is tested for by addition of the ATP synthase inhibitor oligomycin (1-2 μg mL^−1) in a protocol 3 where the extent of uncoupling corresponds to the respiratory rate following oligomycin addition. In the second protocol the same buffer is used as described above. […] In the third protocol, the same buffer as described above is used. […] Subsequently, the ATP-synthase-inhibitor Oligomycin is added. A reduction in respiration is a measure of how much of the oxygen consumption that is coupled to ATP synthesis. No, or only a slight, reduction indicate that the compound is inducing a proton leak over the inner mitochondrial membrane. The uncoupler FCCP is then titrated to induce maximum uncoupled respiration. […] The experiment is terminated by the addition of 1 μg/mL of the complex III inhibitor Antimycin to measure non-mitochondrial oxygen consumption. Intact human blood cells are incubated in plasma from the same donor. […] The experiment is terminated by addition of Antimycin at final concentration 1 μg/mL and any residual non-mitochondrial oxygen consumption is measured.

intact human platelets [2] = test: Intervention on rotenone- or metformin-induced lactate production with cell-permeable succinate prodrugs; assay type: cell-based; details: for effect on metformin-induced lactate production: 10 mM metformin, consecutive additions of 250 μM each 30 minutes; for effect on rotenone-induced lactate production: rotenone 2 μM, repeated additions of 250 μM each 30 minutes
Description: (§1) Lactate levels are determined every 2 h using the Lactate Pro™ 2 blood lactate test meter (Arkray, Alere AB, Lidingö, Sweden) or similar types of measurements. Incubation is performed at 37° C. pH is measured at start, after 4 and after 8 h (or more frequently) of incubation using a Standard pH Meter, e.g. PHM210 (Radiometer, Copenhagen, Denmark). Drug candidates are added to the assay from start or following 30-60 min at concentrations within the range 10 μM-5 mM. […] In order to evaluate the specificity of the drug candidate, it is also tested in combination with a down-stream inhibitor of respiration such as the complex III inhibitor Antimycin at 1 μg/mL, which should abolish the effect of the drug candidate and restore the production of lactate. The use of antimycin is therefore also a control for undue effects of drug candidates on the lactate producing ability of the cells used in the assay.
Lactate levels were measured in intervals of 30 min with the onset of the experiment.

intact human platelets [3] = test: Mitochondrial respiration in intact human platelets (respirometry); assay type: cell-based; details: for routine respiration change after 60 min: compared to first measurement after addition
Description: (§2) Lactate production of intact human platelets was determined in PBS containing 10 mM glucose.
Routine respiration was followed for 60 min at 37° C. before the ATP-synthase inhibitor oligomycin (1 μg mL^−1) was added to assess LEAK respiration. Maximal uncoupled respiratory electron transport system capacity supported by endogenous substrates (ETS) was reached by titration of FCCP.

intact PBMCs = test: Lactate release of intact PBMCs; assay type: cell-based, human; details: 10 mM metformin, data not shown
[4] = tested on: permeabilized human peripheral blood mononuclear cells; test: Mitochondrial respiration in permeabilized human PBMCs (respirometry); assay type: cell-based; details: PBMC, read-out: IC50 (OXPHOSCI respiration)
Description: Real-time respirometric measurements were performed using high-resolution oxygraphs (Oxygraph-2k, Oroboros Instruments, Innsbruck, Austria). The experimental conditions during the measurements were the following: 37° C., 2 mL active chamber volume and 750 rpm stirrer speed. […] Settings, daily calibration and instrumental background corrections were conducted according to the manufacturer's instructions. […] All measurements were performed at a platelet concentration of 200×10^6 cells per mL or a PBMC concentration of 5×10^6 cells per mL. […] Maximal uncoupled respiratory electron transport system capacity supported by convergent input through complex I and […] ) was evaluated by subsequent titration with the protonophore carbonyl-cyanide p-(trifluoromethoxy) phenylhydrazone (FCCP). […] The complex III inhibitor antimycin (1 μg mL^-1) was then given to reveal residual oxygen consumption (ROX). […] Complex IV activity was calculated by subtracting the sodium azide value from the TMPD value. With exception of complex IV activity, all respiratory states were measured at steady-state and corrected for ROX. Complex IV activity was measured after ROX determination and not at steady-state.

[5] = tested on: Intact human blood cells with inhibited complex I; test: Screening assay 4: enhancement of mitochondrial energy producing function in cells with inhibited respiratory complex I in human plasma; assay type: cell-based; parameters: key: The response in each parameter is graded either +, ++ or +++ in increasing order of potency; The response in each parameter is graded either +, ++ or +++ in increasing order of potency; The response in each parameter is graded either +, ++ or +++ in increasing order of potency; (+): Brackets [( )] indicate an intermediate effect, i.e. (+++) is between ++ and +++; details: increase in mitochondrial oxygen consumption
Description: (§3) Measurement of mitochondrial respiration is performed in a high-resolution oxygraph (Oxygraph—2k, Oroboros Instruments, Innsbruck, Austria) at a constant temperature of 37° C. Isolated human platelets, white blood cells, fibroblasts, human heart muscle fibers or other cell types containing live mitochondria are suspended in a 2 mL glass chamber at a concentration sufficient to yield oxygen consumption in the medium of ≧10 pmol O2 s^−1 mL^−1.
Intact human blood cells are incubated in plasma from the same donor. […] Compounds dissolved in DMSO are titrated in a range of 10 μM to 10 mM final concentration. The experiment is terminated by addition of Antimycin at final concentration 1 μg/mL and any residual non-mitochondrial oxygen consumption is measured.

[6] = tested on: cells with inhibited respiratory complex I; test: Screening assay 1: enhancement of mitochondrial energy producing function in cells with inhibited respiratory complex I; assay type: cell-based, human; parameters: key: The response in each parameter is graded either +, ++ or +++ in increasing order of potency; The response in each parameter is graded either +, ++ or +++ in increasing order of potency; The response in each parameter is graded either +, ++ or +++ in increasing order of potency; (+): Brackets [( )] indicate an intermediate effect, i.e. (+++) is between ++ and +++; details: increase in mitochondrial oxygen consumption in cells with inhibited complex I
Description: as §3
Cells are placed in a buffer containing 110 mM sucrose, HEPES 20 mM, taurine 20 mM, K-lactobionate 60 mM, MgCl2 3 mM, KH2PO4 10 mM, EGTA 0.5 mM, BSA 1 g/l, pH 7.1. […] Compounds dissolved in DMSO are titrated in a range of 10 μM to 10 mM final concentration. Subsequently, cell membranes are permeabilised with digitonin (1 mg/1*10^6 plt) to allow entry of extracellularly released energy substrate or cell impermeable energy substrates. After stabilized respiration, Succinate 10 mM is added as a reference to enable respiration downstream of complex I. After the respiration stabilized the experiment is terminated by addition of Antimycin at final concentration 1 μg/mL and any residual non-mitochondrial oxygen consumption is measured. An increase in respiration rate in the described protocol is tightly coupled to ATP synthesis by oxidative phosphorylation unless cells are uncoupled (i.e. proton leak without production of ATP). […]

intact cells [7] = test: Screening assay 3: assay to assess uncoupling in intact cells (high-resolution respirometry); assay type: cell-based, human; parameters: key: The response in each parameter is graded either +, ++ or +++ in increasing order of potency; The response in each parameter is graded either +, ++ or +++ in increasing order of potency; The response in each parameter is graded either +, ++ or +++ in increasing order of potency; (+): Brackets [( )] indicate an intermediate effect, i.e. (+++) is between ++ and +++; details: for Convergent (Routine): increase in mitochondrial oxygen consumption induced by the compound, screening assay 3, 1 mM compound; for Uncoupling: level of oxygen consumption after addition of oligomycin, screening assay 3
Description: In the third protocol, the same buffer as described above is used. […] Subsequently, the ATP-synthase-inhibitor Oligomycin is added. A reduction in respiration is a measure of how much of the oxygen consumption that is coupled to ATP synthesis. No, or only a slight, reduction indicate that the compound is inducing a proton leak over the inner mitochondrial membrane. The uncoupler FCCP is then titrated to induce maximum uncoupled respiration. […] The experiment is terminated by the addition of 1 μg/mL of the complex III inhibitor Antimycin to measure non-mitochondrial oxygen consumption.

intact cells [8] = test: Screening assay 2: enhancement and inhibition of mitochondrial energy producing function in intact cells (FCCP uncoupled); assay type: cell-based, human; parameters: key to Convergent (FCCP): The response in each parameter is graded either +, ++ or +++ in increasing order of potency; The response in each parameter is graded either +, ++ or +++ in increasing order of potency; The response in each parameter is graded either +, ++ or +++ in increasing order of potency; (+): Brackets [( )] indicate an intermediate effect, i.e. (+++) is between ++ and +++; details: for Convergent (FCCP): increase in mitochondrial oxygen consumption, screening assay 2, uncoupled conditions; for Toxicity: lowest concentration during compound titration at which a decrease in oxygen consumption is seen, screening assay 2
Description: as §3
In the second protocol the same buffer is used as described above. After basal respiration is established, the mitochondrial uncoupler FCCP is added at a concentration of 2 nM to increase metabolic demand.

[9] = tested on: permeabilized human platelets
Description: as §2
Subsequently the FADH2-linked substrate succinate (10 mM) was given to determine convergent complex I- and II-dependent OXPHOS capacity (OXPHOSCI+II). […] Finally, the artificial complex IV substrate N,N,N′,N′-tetramethyl-p-phenylenediamine dihydrochloride (TMPD, 0.5 mM) was added and the complex IV inhibitor sodium azide (10 mM) was given to measure complex IV activity and chemical background, respectively.

intact human platelets [10] = test: Lactate production and pH of intact human platelets; assay type: cell-based; details: metformin 1 and 10 mM, phenformin 0.5 mM, rotenone 2 μM
Description: as §1
Incubation was performed at 37° C. at a stirrer speed of 750 rpm, and pH was measured at start, after 4 and after 8 h of incubation (n=4) using a PHM210 Standard pH Meter (Radiometer, Copenhagen, Denmark).

[11] = 10 mM metformin plus prodrug, 250 μM each 30 minutes

COC(=O)CCC(=O)O [monomethyl succinate]
activity in the assays exemplified (intact cells [1]): inactive

CCOC(=O)CCC(=O)OCC [Diethyl succinate]
activity in the assays exemplified (intact cells [1]): inactive

CC(=O)OC(C)OC(=O)CCC(=O)OC(C)OC(C)=O (stereo not shown) [NV189]
rate of lactate production (intact human platelets [2]; [11]): 0.55 mmol lactate (200·10^9 trc·h)^−1
effect on metformin-induced lactate production (intact human platelets [2]): significantly decreased
rate of lactate production (intact human platelets [2]; rotenone 2 μM plus antimycin 1 μg/mL plus prodrug): 0.89 mmol lactate (200·10^6trc·h)^−1
effect on rotenone-induced lactate production (intact human platelets [2]): attenuated; also recorded: brought back to normal

CN(C)C(=N)N=C(N)N [metformin]
routine respiration change after 60 min (intact human platelets [3]; 1 mM): −17.27%
routine respiration reduction after whole blood incubation (intact human platelets [3]; 1 mM, whole blood incubated over 18 h before platelet isolation): 30.49%
routine respiration change after 60 min (intact human platelets [3]; 10 mM): −28.61%
routine respiration change after 15 min compared to control (intact human platelets [3]; 100 mM, 15 min of exposure): −39.77%
routine respiration change after 60 min (intact human platelets [3]; 100 mM): −81.78%
lactate release (intact PBMCs): increased lactate release
IC50 [4]: 450 µM

CC(=O)OCOC(=O)CCC(=O)OCOC(C)=O [NV118]
rate of lactate production (intact human platelets [2]; [11]): 0.43 mmol lactate (200·10^9 trc·h)^−1
effect on metformin-induced lactate production (intact human platelets [2]): significantly decreased
effect on rotenone-induced lactate production (intact human platelets [2]): attenuated

CC(=O)OC(CCCOC(=O)CCC(=O)O)OC(=O)CCC(=O)O (stereo not shown) [01-134]
CII (plasma) [5]: (+)
CII [6]: (+)
Convergent (Routine) (intact cells [7]): ++
Uncoupling (intact cells [7]): (+)
Convergent (FCCP) (intact cells [8]): (+)
Toxicity (intact cells [8]): 10 mM

CC(=O)OC(CCCN1C(=O)c2ccccc2C1=O)OC(=O)CCC(=O)O (stereo not shown) [01-150, 4-(1-acetoxy-4-(1,3-dioxoisoindolin-2-yl)butoxy)-4-oxobutanoic acid]
CII (plasma) [5]: (+)
CII [6]: ++
Convergent (Routine) (intact cells [7]): +++
Uncoupling (intact cells [7]): (+)
Convergent (FCCP) (intact cells [8]): +
Toxicity (intact cells [8]): 2 mM

[H]/N=C(/N)N/C(=N/[H])NCCc1ccccc1 [phenformin]
ETSCII capacity and complex IV activity ([9]; compared to controls): not ETSCII or respiration specific to complex IV
fold more potent inhibition of OXPHOSCI than metformin ([9]; phenformin versus metformin): 20 fold
IC50 ([9]; read-out: IC50 (OXPHOSCI respiration), complex I substrates): 58 µM
lactate production over 8 h compared to control (intact human platelets [10]): significantly more lactate

CC(=O)OCOC(=O)CCC(=O)OC(C)OC(C)=O (stereo not shown) [NV241]
rate of lactate production (intact human platelets [2]; [11]): 0.43 mmol lactate (200·10^9 trc·h)^−1
effect on metformin-induced lactate production (intact human platelets [2]): significantly decreased
effect on rotenone-induced lactate production (intact human platelets [2]): attenuated

O=C(O)CCC(=O)O [succinate, reference compound]
effect on metformin-induced lactate production (intact human platelets [2]): did not reduce the metformin-induced production of lactate; also recorded: did not change this

COC(=O)CCC(=O)OC [dimethyl succinate]
activity in the assays exemplified (intact cells [1]): inactive
